The record followed here is patent publication US8217053B2, “Camptothecin derivatives with antitumor activity” (Indena S.p.A., priority 2006, dated 2012).

Values after ≈ are worked out from the molar mass of the structure shown.

The subject of the first data set is lung tumor model. Description: In vivo comparison on a lung tumor model. To be noted: dose 50 mg/kg/inj. From the text: Compound thio-SN38 (IDN6156) was transformed into thio-CPT11 (thio-Irinotecan) according to procedures for the conversion of SN38 to CPT11 (Irinotecan) reported in the literature. The resulting compound thio-irinotecan was compared in vivo with close non-sulforated analogue in clinical use (CPT11) on a lung tumor model highly sensitive to the standard references.
Regarding `CCc1c2c(nc3ccc(OC(=O)N4CCC(N5CCCCC5)CC4)cc13)-c1cc3c(c(=O)n1C2)COC(=O)[C@]3(O)CC` [CPT 11], the “Max BWL %” value is recorded as 15%, the TWI % is 91% and the Tox/Tot is 0/5.

The same data set, now with this note: dose 50 mg/kg/inj., 0.5 g.
For the compound `CCc1c2c(nc3ccc(OC(=O)N4CCC(N5CCCCC5)CC4)cc13)-c1cc3c(c(=O)n1C2)COC(=O)[C@]3(O)CC` [CPT 11], the “LCK (0.5 g)” value worked out at 1.8.

Another data set deals with T1, human recombinant enzyme (full length top1) (Homo sapiens, UniProt P11387).
T1 construct: the human recombinant enzyme (full length top1)
T1 sequence (P11387 1-765): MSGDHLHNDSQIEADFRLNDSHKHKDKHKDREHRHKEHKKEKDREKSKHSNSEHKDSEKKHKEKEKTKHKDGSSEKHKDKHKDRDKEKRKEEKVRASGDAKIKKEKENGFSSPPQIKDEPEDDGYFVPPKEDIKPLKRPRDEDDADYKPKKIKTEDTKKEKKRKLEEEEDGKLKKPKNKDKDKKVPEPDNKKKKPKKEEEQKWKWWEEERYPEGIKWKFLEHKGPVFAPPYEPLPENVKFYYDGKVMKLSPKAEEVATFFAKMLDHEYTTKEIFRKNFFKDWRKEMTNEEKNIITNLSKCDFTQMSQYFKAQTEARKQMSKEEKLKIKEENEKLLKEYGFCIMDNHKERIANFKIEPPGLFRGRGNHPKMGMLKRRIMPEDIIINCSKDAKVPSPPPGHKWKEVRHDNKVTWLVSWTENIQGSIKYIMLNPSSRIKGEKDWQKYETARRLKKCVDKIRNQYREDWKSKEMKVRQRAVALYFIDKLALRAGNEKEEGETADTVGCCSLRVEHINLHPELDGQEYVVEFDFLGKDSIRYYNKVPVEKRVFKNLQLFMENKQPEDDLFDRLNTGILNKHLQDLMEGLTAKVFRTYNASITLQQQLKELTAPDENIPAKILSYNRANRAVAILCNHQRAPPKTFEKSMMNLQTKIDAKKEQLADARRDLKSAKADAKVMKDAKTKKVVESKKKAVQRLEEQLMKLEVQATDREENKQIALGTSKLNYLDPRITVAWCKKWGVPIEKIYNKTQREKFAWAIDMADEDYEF
Description: Topoisomerase-I-dependent DNA rupture assay (DNA damage persistence). The conditions noted are these: time 0 min; 0.6 M NaCl added after 30 min incubation with 10 μM of the drug. Type of data set: biochemical.
Consider `CC[C@@]1(O)C(=O)OCc2c1cc1n(c2=O)Cc2cc3ccccc3nc2-1` [Camptothecin], for which the “Persistence of DNA damage (%)” value is 100%.

`CC[C@@]1(O)C(=O)OCc2c1cc1n(c2=S)Cc2cc3ccccc3nc2-1` [IDN 6070, Thio-camptothecin]: the “Persistence of DNA damage (%)” value came to 100%.

Consider `CC[C@@]1(O)C(=O)OCc2c1cc1n(c2=S)C(N=[N+]=[N-])c2cc3ccccc3nc2-1` (some centres unmarked) [IDN 6092], for which the “Persistence of DNA damage (%)” value is given as 100%.

Regarding `CCc1c2c(nc3ccc(O)cc13)-c1cc3c(c(=S)n1C2)COC(=O)[C@]3(O)CC` [IDN 6156, ThioSN-38], the “Persistence of DNA damage (%)” value was determined as 100%.

Regarding `CC[C@@]1(O)C(=O)OCc2c1cc1n(c2=S)Cc2cc3cc(O)ccc3nc2-1` [IDN 6181, 10-hydroxy-Thio-Camptothecin], the “Persistence of DNA damage (%)” value is 100%.

Take `CCc1c2c(nc3ccc(O)cc13)-c1cc3c(c(=O)n1C2)COC(=O)[C@]3(O)CC` [SN38, 10-hydroxy-7-ethylcamptothecin, reference compound]: the “Persistence of DNA damage (%)” value came out at 100%.

With `CC[C@@]1(O)C(=O)OCc2c1cc1n(c2=O)Cc2cc3c(CN(C)C)c(O)ccc3nc2-1` [Topotecan, reference compound], the “Persistence of DNA damage (%)” value came to 100%.

Still in this data set, the particulars now being: time 1 min; 0.6 M NaCl added after 30 min incubation with 10 μM of the drug.
On to `CC[C@@]1(O)C(=O)OCc2c1cc1n(c2=O)Cc2cc3ccccc3nc2-1` [Camptothecin], for which the “Persistence of DNA damage (%)” value is 58%.

For `CC[C@@]1(O)C(=O)OCc2c1cc1n(c2=S)Cc2cc3ccccc3nc2-1` [IDN 6070, Thio-camptothecin], the “Persistence of DNA damage (%)” value turned out to be 33%.

`CC[C@@]1(O)C(=O)OCc2c1cc1n(c2=S)C(N=[N+]=[N-])c2cc3ccccc3nc2-1` (some centres unmarked) [IDN 6092]: the “Persistence of DNA damage (%)” value was found to be 35%.

On to `CCc1c2c(nc3ccc(O)cc13)-c1cc3c(c(=S)n1C2)COC(=O)[C@]3(O)CC` [IDN 6156, ThioSN-38], for which the “Persistence of DNA damage (%)” value amounted to 100%.

Consider `CC[C@@]1(O)C(=O)OCc2c1cc1n(c2=S)Cc2cc3cc(O)ccc3nc2-1` [IDN 6181, 10-hydroxy-Thio-Camptothecin], for which the “Persistence of DNA damage (%)” value is 88%.

`CCc1c2c(nc3ccc(O)cc13)-c1cc3c(c(=O)n1C2)COC(=O)[C@]3(O)CC` [SN38, 10-hydroxy-7-ethylcamptothecin, reference compound]: the “Persistence of DNA damage (%)” value came to 60%.

With `CC[C@@]1(O)C(=O)OCc2c1cc1n(c2=O)Cc2cc3c(CN(C)C)c(O)ccc3nc2-1` [Topotecan, reference compound], the “Persistence of DNA damage (%)” value came to 65%.

Staying with this data set, now noted: time 5 min; 0.6 M NaCl added after 30 min incubation with 10 μM of the drug.
Regarding `CC[C@@]1(O)C(=O)OCc2c1cc1n(c2=O)Cc2cc3ccccc3nc2-1` [Camptothecin], the “Persistence of DNA damage (%)” value came to 23%.

As for `CC[C@@]1(O)C(=O)OCc2c1cc1n(c2=S)Cc2cc3ccccc3nc2-1` [IDN 6070, Thio-camptothecin], the “Persistence of DNA damage (%)” value was 10%.

In the case of `CC[C@@]1(O)C(=O)OCc2c1cc1n(c2=S)C(N=[N+]=[N-])c2cc3ccccc3nc2-1` (some centres unmarked) [IDN 6092], the “Persistence of DNA damage (%)” value stood at 18%.

Turning to `CCc1c2c(nc3ccc(O)cc13)-c1cc3c(c(=S)n1C2)COC(=O)[C@]3(O)CC` [IDN 6156, ThioSN-38], the “Persistence of DNA damage (%)” value is 80%.

As to `CC[C@@]1(O)C(=O)OCc2c1cc1n(c2=S)Cc2cc3cc(O)ccc3nc2-1` [IDN 6181, 10-hydroxy-Thio-Camptothecin], the “Persistence of DNA damage (%)” value is on record as 50%.

Regarding `CCc1c2c(nc3ccc(O)cc13)-c1cc3c(c(=O)n1C2)COC(=O)[C@]3(O)CC` [SN38, 10-hydroxy-7-ethylcamptothecin, reference compound], the “Persistence of DNA damage (%)” value was 33%.

`CC[C@@]1(O)C(=O)OCc2c1cc1n(c2=O)Cc2cc3c(CN(C)C)c(O)ccc3nc2-1` [Topotecan, reference compound]: the “Persistence of DNA damage (%)” value is given as 20%.

Staying with this data set, now noted: time 10 min; 0.6 M NaCl added after 30 min incubation with 10 μM of the drug.
Take `CC[C@@]1(O)C(=O)OCc2c1cc1n(c2=O)Cc2cc3ccccc3nc2-1` [Camptothecin]: the “Persistence of DNA damage (%)” value is reported as 20%.

In the case of `CC[C@@]1(O)C(=O)OCc2c1cc1n(c2=S)Cc2cc3ccccc3nc2-1` [IDN 6070, Thio-camptothecin], the “Persistence of DNA damage (%)” value amounted to 10%.

As for `CC[C@@]1(O)C(=O)OCc2c1cc1n(c2=S)C(N=[N+]=[N-])c2cc3ccccc3nc2-1` (some centres unmarked) [IDN 6092], the “Persistence of DNA damage (%)” value was determined as 15%.

As to `CCc1c2c(nc3ccc(O)cc13)-c1cc3c(c(=S)n1C2)COC(=O)[C@]3(O)CC` [IDN 6156, ThioSN-38], the “Persistence of DNA damage (%)” value is 60%.

As for `CC[C@@]1(O)C(=O)OCc2c1cc1n(c2=S)Cc2cc3cc(O)ccc3nc2-1` [IDN 6181, 10-hydroxy-Thio-Camptothecin], the “Persistence of DNA damage (%)” value is recorded as 22%.

Take `CCc1c2c(nc3ccc(O)cc13)-c1cc3c(c(=O)n1C2)COC(=O)[C@]3(O)CC` [SN38, 10-hydroxy-7-ethylcamptothecin, reference compound]: the “Persistence of DNA damage (%)” value is 28%.

On to `CC[C@@]1(O)C(=O)OCc2c1cc1n(c2=O)Cc2cc3c(CN(C)C)c(O)ccc3nc2-1` [Topotecan, reference compound], for which the “Persistence of DNA damage (%)” value is 10%.

The subject of another data set is NCI-H460 cell line (NSCL cancer). Description: Cell growth inhibition assay (cytotoxicity). Type of data set: cell-based, human. To be noted: H460 human large cell lung tumor cells; counted 72 hours after exposure; 1 or 72 hr drug exposure. As to the method: The compounds of the invention were tested in a cytotoxicity assay on a wide spectrum of tumour cells. By way of example, the cytotoxicity data on the NCI-H460 cell line (NSCL cancer) concerning two compounds of formula (I) are reported, using camptothecin and the drugs Topotecan and SN-38 as references:
H460 Cells from human large cell lung tumor were cultured in RPMI-1640 medium containing 10% foetal calf serum. Cell sensitivity was determined by cell growth inhibition assay after 1 or 72 hr drug exposure. The cells in logarithmic growth were collected and seeded in duplicate in 6-wells plates. […] IC50 is defined as the concentration inhibiting by 50% cell growth compared with untreated controls growth.
For the compound `CC[C@@]1(O)C(=O)OCc2c1cc1n(c2=S)C(N=[N+]=[N-])c2cc3ccccc3nc2-1` (some centres unmarked) [IDN 6092], the “NCI-H460 IC50 (μg/mL) Cell count” value was determined as 0.3 ± 0.07 µg/mL.

Turning to `CC[C@@]1(O)C(=O)OCc2c1cc1n(c2=S)C(N=[N+]=[N-])c2cc3ccccc3nc2-1` (some centres unmarked) [IDN 6093], the “NCI-H460 IC50 (μg/mL) Cell count” value is 0.72 ± 0.2 µg/mL.

The data set is the same for the next values; noted with them: Homo sapiens, NCI-H460, read-out: NCI-H460 IC50 (μg/mL) Cell count, H460 human large cell lung tumor cells; counted 72 hours after exposure; 1 or 72 hr drug exposure.
`CC[C@@]1(O)C(=O)OCc2c1cc1n(c2=S)Cc2cc3ccccc3nc2-1` [IDN 6070, Thio-camptothecin]: the IC50 is 0.05 ± 0.021 µg/mL (≈ 0.137 µM).

`CCc1c2c(nc3ccc(O)cc13)-c1cc3c(c(=S)n1C2)COC(=O)[C@]3(O)CC` [IDN 6156, ThioSN-38]: the IC50 is 0.0095 ± 0.0007 µg/mL (≈ 0.0233 µM).

For `CC[C@@]1(O)C(=O)OCc2c1cc1n(c2=S)Cc2cc3c(CN(C)C)c(O)ccc3nc2-1` [IDN 6180, Thio-Topotecan], the IC50 turned out to be 0.115 ± 0.021 µg/mL (≈ 0.263 µM).

As to `CC[C@@]1(O)C(=O)OCc2c1cc1n(c2=S)Cc2cc3cc(O)ccc3nc2-1` [IDN 6181, 10-hydroxy-Thio-Camptothecin], the IC50 was determined as 0.035 ± 0.011 µg/mL (≈ 0.092 µM).
